# Laboratory results reported in ChEMBL document CHEMBL1130598, “Pyrroles and other heterocycles as inhibitors of p38 kinase” (Bioorg Med Chem Lett, 1998).
# What was measured:
# [1] = molecular target: Mitogen-activated protein kinase 14 (Rattus norvegicus, UniProt P70618); assay: Inhibitory potency evaluated against rat p38 kinase
# [2] = species: Rattus norvegicus; assay: Inhibition of secondary paw swelling in rat adjuvant arthritis model; type: functional
# [3] = molecular target: T1, Mitogen-activated protein kinase 8 (Homo sapiens, UniProt P45983); assay: Inhibition of c-Jun N-terminal kinase 1-alpha 1 at 20 uM
# [4] = molecular target: T2, RAF proto-oncogene serine/threonine-protein kinase (Homo sapiens, UniProt P04049); assay: Inhibition of RAF kinase
# [5] = molecular target: T3, Mitogen-activated protein kinase 9 (Homo sapiens, UniProt P45984); assay: Inhibition of c-Jun N-terminal kinase 2-alpha 2
# [6] = Pharmacokinetic parameter area under curve was determined at 3 mg/kg po dose in rats; type: ADME, organism-based; set-up: dose 3 mg/kg, route oral; details: rat, in vivo
# [7] = molecular target: T3, Mitogen-activated protein kinase 9; assay: Inhibition of c-Jun N-terminal kinase 2-beta 1
# [8] = Pharmacokinetic parameter area under curve was determined at 2 mg/kg i.v. dose in rats; type: ADME, organism-based; set-up: dose 2 mg/kg, route intravenous; details: rat, in vivo, iv
# [9] = molecular target: Mitogen-activated protein kinase 14 (Homo sapiens, UniProt Q16539); assay: Inhibition of Mitogen-activated protein kinase p38 alpha
# [10] = Pharmacokinetic parameter area under curve was determined at 10 mg/kg po dose in rats; type: ADME, organism-based; set-up: dose 10 mg/kg, route oral; details: rat, in vivo
# [11] = molecular target: Mitogen-activated protein kinase 11 (Homo sapiens, UniProt Q15759); assay: Inhibition of Mitogen-activated protein kinase p38 beta
# [12] = Pharmacokinetic parameter area under curve was determined at 5 mg/kg i.v. dose in rats; type: ADME, organism-based; set-up: dose 5 mg/kg, route intravenous; details: rat, in vivo, iv
# [13] = molecular target: T4, Mitogen-activated protein kinase 12 (Homo sapiens) (UniProt P53778); assay: Inhibition of Mitogen-activated protein kinase p38 gamma at 25 uM
# T4 sequence (whole entry): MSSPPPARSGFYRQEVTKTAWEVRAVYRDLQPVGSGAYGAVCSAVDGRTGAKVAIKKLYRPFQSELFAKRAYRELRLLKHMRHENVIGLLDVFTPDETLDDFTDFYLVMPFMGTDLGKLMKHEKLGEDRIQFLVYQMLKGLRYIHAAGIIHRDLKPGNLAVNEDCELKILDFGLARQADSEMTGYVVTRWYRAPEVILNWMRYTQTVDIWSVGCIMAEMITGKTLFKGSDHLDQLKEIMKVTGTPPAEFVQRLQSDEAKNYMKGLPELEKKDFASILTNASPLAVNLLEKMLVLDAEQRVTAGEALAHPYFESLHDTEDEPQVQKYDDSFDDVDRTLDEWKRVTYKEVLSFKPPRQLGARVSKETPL
# [14] = molecular target: T2, RAF proto-oncogene serine/threonine-protein kinase; assay: Inhibition of RAF kinase at 1 uM
# [15] = system: Rattus norvegicus; assay: Pharmacokinetic parameter plasma clearance was determined at 5 mg/kg i.v. dose in rats; type: ADME, organism-based; set-up: dose 5 mg/kg, route intravenous; details: in vivo, iv
# [16] = T max was determined at 3 mg/kg po dose in rats; type: ADME, organism-based; set-up: dose 3 mg/kg, route oral; details: rat, in vivo
# [17] = molecular target: T4, Mitogen-activated protein kinase 12 (Homo sapiens); details: 50 uM
# Description: Inhibition of Mitogen-activated protein kinase p38 gamma at 50 uM
# [18] = Pharmacokinetic parameter Vdss was determined at 5 mg/kg i.v. dose in rats; type: ADME, organism-based; set-up: dose 5 mg/kg, route intravenous; details: rat, in vivo, iv, read-out: Vdss
# [19] = molecular target: T1, Mitogen-activated protein kinase 8; assay: Inhibition of c-Jun N-terminal kinase 1-alpha 1
# [20] = Pharmacokinetic parameter Vdss was determined at 2 mg/kg i.v. dose in rats; type: ADME, organism-based; set-up: dose 2 mg/kg, route intravenous; details: rat, in vivo, iv, read-out: Vdss
# [21] = Pharmacokinetic parameter half-life was determined at 3 mg/kg po dose in rats; type: ADME, organism-based; set-up: dose 3 mg/kg, route oral; details: rat, in vivo
# [22] = Pharmacokinetic parameter half-life was determined at 5 mg/kg i.v. dose in rats; type: ADME, organism-based; set-up: dose 5 mg/kg, route intravenous; details: rat, in vivo, iv
# [23] = C max was determined at 3 mg/kg po dose in rats; type: ADME, organism-based; set-up: dose 3 mg/kg, route oral; details: rat, in vivo
# [24] = Pharmacokinetic parameter half-life was determined at 10 mg/kg po dose in rats; type: ADME, organism-based; set-up: dose 10 mg/kg, route oral; details: rat, in vivo
# [25] = system: Rattus norvegicus; assay: Pharmacokinetic parameter plasma clearance was determined at 2 mg/kg i.v. dose in rats; type: ADME, organism-based; set-up: dose 2 mg/kg, route intravenous; details: in vivo, iv
# [26] = C max was determined at 10 mg/kg po dose in rats; type: ADME, organism-based; set-up: dose 10 mg/kg, route oral; details: rat, in vivo
# [27] = Bioavailability was determined at 3 mg/kg po dose in rats; type: ADME, organism-based; details: rat, in vivo
# [28] = system: Rattus norvegicus; assay: Inhibition of secondary paw swelling in rat adjuvant arthritis model at 20 mg/kg/ b.i.d.; type: functional; details: intraduodenal
# [29] = Pharmacokinetic parameter half-life was determined at 2 mg/kg i.v. dose in rats; type: ADME, organism-based; set-up: dose 2 mg/kg, route intravenous; details: rat, in vivo, iv
# [30] = T max was determined at 10 mg/kg po dose in rats; type: ADME, organism-based; set-up: dose 10 mg/kg, route oral; details: rat, in vivo
# Sequence of Mitogen-activated protein kinase 14 (Rattus norvegicus, UniProt P70618) (P70618 whole entry): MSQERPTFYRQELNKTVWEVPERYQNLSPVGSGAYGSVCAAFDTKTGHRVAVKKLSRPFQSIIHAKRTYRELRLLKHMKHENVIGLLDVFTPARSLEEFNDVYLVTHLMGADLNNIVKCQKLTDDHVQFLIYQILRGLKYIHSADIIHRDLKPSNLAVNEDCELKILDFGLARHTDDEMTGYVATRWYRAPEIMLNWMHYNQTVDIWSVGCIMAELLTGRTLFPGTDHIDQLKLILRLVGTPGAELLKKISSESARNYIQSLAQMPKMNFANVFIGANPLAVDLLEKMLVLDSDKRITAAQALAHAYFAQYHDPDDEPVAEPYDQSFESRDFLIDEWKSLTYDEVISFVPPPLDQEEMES
# T2 sequence (P04049 whole entry): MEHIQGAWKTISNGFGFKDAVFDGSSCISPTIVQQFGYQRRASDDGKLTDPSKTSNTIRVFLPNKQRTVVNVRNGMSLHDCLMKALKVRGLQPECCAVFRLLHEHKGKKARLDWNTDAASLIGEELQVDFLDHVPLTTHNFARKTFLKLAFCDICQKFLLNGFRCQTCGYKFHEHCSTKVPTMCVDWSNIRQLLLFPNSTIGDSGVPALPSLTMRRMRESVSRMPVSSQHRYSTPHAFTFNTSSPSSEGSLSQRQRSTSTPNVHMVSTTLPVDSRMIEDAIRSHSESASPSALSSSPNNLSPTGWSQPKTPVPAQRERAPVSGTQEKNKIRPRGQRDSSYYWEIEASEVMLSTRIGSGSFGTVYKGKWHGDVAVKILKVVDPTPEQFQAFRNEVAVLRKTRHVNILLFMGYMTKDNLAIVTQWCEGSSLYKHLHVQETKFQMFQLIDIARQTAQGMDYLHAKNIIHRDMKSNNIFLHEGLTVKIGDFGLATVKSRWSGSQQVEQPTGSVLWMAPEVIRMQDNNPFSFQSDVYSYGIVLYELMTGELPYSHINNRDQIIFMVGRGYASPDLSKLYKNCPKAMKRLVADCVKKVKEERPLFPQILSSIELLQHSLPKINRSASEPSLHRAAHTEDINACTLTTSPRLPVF
# T3 sequence (P45984 whole entry): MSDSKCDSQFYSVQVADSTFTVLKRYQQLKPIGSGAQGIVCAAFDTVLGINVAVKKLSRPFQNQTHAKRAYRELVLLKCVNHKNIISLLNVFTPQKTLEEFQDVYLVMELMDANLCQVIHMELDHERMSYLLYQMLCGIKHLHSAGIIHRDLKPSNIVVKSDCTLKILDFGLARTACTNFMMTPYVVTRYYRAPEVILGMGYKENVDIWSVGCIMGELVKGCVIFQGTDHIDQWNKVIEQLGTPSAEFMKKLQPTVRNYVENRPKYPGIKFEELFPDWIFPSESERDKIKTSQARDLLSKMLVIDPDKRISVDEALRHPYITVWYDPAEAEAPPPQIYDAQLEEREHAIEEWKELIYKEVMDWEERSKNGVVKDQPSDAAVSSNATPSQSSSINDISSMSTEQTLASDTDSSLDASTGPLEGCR
# T1 sequence (P45983 whole entry): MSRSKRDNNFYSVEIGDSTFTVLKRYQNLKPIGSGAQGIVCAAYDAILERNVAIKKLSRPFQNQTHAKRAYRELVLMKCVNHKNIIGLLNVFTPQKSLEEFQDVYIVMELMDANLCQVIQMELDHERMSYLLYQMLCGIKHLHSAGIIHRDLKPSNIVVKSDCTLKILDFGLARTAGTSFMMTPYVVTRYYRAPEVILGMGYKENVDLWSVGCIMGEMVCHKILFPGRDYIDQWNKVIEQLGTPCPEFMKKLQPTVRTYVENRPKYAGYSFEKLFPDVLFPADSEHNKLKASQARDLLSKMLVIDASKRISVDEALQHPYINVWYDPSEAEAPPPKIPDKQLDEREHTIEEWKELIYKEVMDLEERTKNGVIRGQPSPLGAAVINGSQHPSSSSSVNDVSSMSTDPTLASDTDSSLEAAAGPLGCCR
# Sequence of Mitogen-activated protein kinase 14 (Homo sapiens, UniProt Q16539) (Q16539 whole entry): as the sequence (P70618 whole entry) above, with V17I, H48L, A263T, E321D, F332L counted along it
# Sequence of Mitogen-activated protein kinase 11 (Q15759 whole entry): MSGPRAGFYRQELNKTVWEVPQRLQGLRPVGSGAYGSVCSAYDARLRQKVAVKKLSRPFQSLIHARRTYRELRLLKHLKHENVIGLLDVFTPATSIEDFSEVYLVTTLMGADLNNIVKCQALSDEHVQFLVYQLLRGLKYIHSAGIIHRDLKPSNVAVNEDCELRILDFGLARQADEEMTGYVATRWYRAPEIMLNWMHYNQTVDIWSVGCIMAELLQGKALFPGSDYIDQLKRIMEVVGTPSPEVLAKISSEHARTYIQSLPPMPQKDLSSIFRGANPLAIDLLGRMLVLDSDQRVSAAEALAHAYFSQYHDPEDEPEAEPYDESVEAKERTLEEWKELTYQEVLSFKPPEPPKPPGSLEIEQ
compound,measurement,setting,value
CCOC(=O)c1ccc(-c2cc(-c3ccncc3)c(-c3ccccc3)[nH]2)cc1,IC50,[1],130 nM
c1ccc(-c2cc(-c3ccncc3)c(-c3cccs3)[nH]2)cc1,IC50,[1],120 nM
Fc1ccc(-c2cc(-c3ccncc3)c(-c3ccccc3)[nH]2)cc1,IC50,[1],17 nM
O=[N+]([O-])c1cccc(-c2cc(-c3ccncc3)c(-c3ccccc3)[nH]2)c1,IC50,[1],53 nM
Fc1ccc(-c2[nH]c(-c3ccc(Cl)cc3)cc2-c2ccccn2)cc1,IC50,[1],> 10000 nM
Clc1ccc(-c2cc(-c3ccncc3)c(-c3ccccc3)[nH]2)cc1,IC50,[1],510 nM
N#Cc1cccc(-c2[nH]c(-c3ccccc3)cc2-c2ccncc2)c1,IC50,[1],53 nM
Fc1ccc(-c2[nH]c(-c3ccccc3)cc2-c2ccncc2)cc1,IC50,[1],12 nM
c1ccc(-c2cc(-c3ccncc3)c(-c3ccccc3)[nH]2)cc1,IC50,[1],17 nM
Clc1cccc(-c2[nH]c(-c3ccccc3)cc2-c2ccncc2)c1,IC50,[1],29 nM
Clc1ccc(-c2[nH]c(-c3ccccc3)cc2-c2ccncc2)cc1Cl,IC50,[1],30 nM
COc1ccc2c(c1)c(CC(=O)O)c(C)n2C(=O)c1ccc(Cl)cc1 [INDOMETHACIN],ID50,[2],1 mg kg-1 b.i.d.
COc1ccc(-c2cc(-c3ccncc3)c(-c3ccc(F)cc3)[nH]2)cc1,IC50,[1],60 nM
CS(=O)(=O)c1ccc(-c2cc(-c3ccncc3)c(-c3ccc(F)cc3)[nH]2)cc1,inhibition,[3],50%
same,IC50,[4],500 nM
same,IC50,[5],6850 nM
same,AUC,[6],5.8 µM·h
same,IC50,[7],1080 nM
same,AUC,[8],6.18 µM·h
same,IC50,[9],9 nM
same,ED50,"[2]; Rattus norvegicus, read-out: ID50 (the source's name)",7.4 mg/kg/day
same,AUC,[10],95.7 µM·h
same,IC50,[11],10 nM
same,IC50,[1],9.8 nM
same,AUC,[12],32.6 µM·h
same,inhibition,[13],37%
same,inhibition,[14],50%
c1ccc(-c2cc(-c3ccncc3)c(-c3cccnc3)[nH]2)cc1,IC50,[1],240 nM
C[S+]([O-])c1ccc(-c2cc(-c3ccnc4ccccc34)c(-c3ccc(F)cc3)[nH]2)cc1 (configuration not stated),IC50,[1],114 nM
Fc1ccc(-c2[nH]c(-c3ccccc3)cc2-c2ccncn2)cc1,IC50,[1],710 nM
Fc1cccc(-c2cc(-c3ccncc3)c(-c3ccccc3)[nH]2)c1,IC50,[1],42 nM
C[S+]([O-])c1ccc(-c2cc(-c3ccncc3)c(-c3ccc(F)cc3)[nH]2)cc1 (configuration not stated),IC50,[4],470 nM
same,IC50,[5],7610 nM
same,AUC,[6],0.81 µM·h
same,IC50,[7],1500 nM
same,Clp,[15],22.5 mL/min/kg
same,Tmax,[16],1 h
same,inhibition,[17],42%
same,Vd,[18],1.81 L/kg
same,IC50,[19],16000 nM
same,Vd,[20],2.23 L/kg
same,half-life,[21],2.04 h
same,AUC,[8],2.1 µM·h
same,IC50,[9],5 nM
same,half-life,[22],1.06 h
same,ID50,[2],7.4 mg kg-1 b.i.d.
same,Cmax,[23],0.31 µM
same,half-life,[24],2.59 h
same,AUC,[10],16.7 µM·h
same,IC50,[11],8.1 nM
same,Clp,[25],42.6 mL/min/kg
same,Cmax,[26],5.71 µM
same,IC50,[1],5.1 nM
same,AUC,[12],10 µM·h
same,bioavailability,[27],25.6%
same,inhibition in vivo at 20 mg/kg,[28],90%
same,half-life,[29],0.652 h
same,Tmax,[30],1.05 h
Fc1ccc(-c2cc(-c3ccc(Cl)cc3)[nH]c2-c2ccncc2)cc1,IC50,[1],1400 nM
Fc1ccc(-c2cc(-c3ccncc3)c(-c3ccc(F)cc3)[nH]2)cc1,IC50,[1],60 nM
Nc1ccc(-c2cc(-c3ccncc3)c(-c3ccccc3)[nH]2)cc1,IC50,[1],28 nM
CC(C)(C)Oc1ccc(-c2[nH]c(-c3ccccc3)cc2-c2ccncc2)cc1,IC50,[1],> 1000 nM
CSc1ccc(-c2[nH]c(-c3ccccc3)cc2-c2ccncc2)cc1,IC50,[1],690 nM
O=[N+]([O-])c1ccc(-c2cc(-c3ccncc3)c(-c3ccccc3)[nH]2)cc1,IC50,[1],6.1 nM
Fc1ccc(-c2oc(-c3ccc(Cl)cc3)cc2-c2ccncc2)cc1,IC50,[1],630 nM
Fc1ccc(-c2[nH]c(-c3ccc(Cl)cc3)cc2-c2ccncc2)cc1,IC50,[1],200 nM
O=c1c(-c2ccc(F)cc2)c(-c2ccncc2)[nH]n1-c1ccc(Cl)cc1,IC50,[1],35 nM
